Tests used:
wild oat = test: Test B postemergence herbicide test; type: in vivo, Avena fatua; settings: Postemergence, scale 0 (no effect) to 100 (complete control); for Oat, Wild plant response rating: 125 g ai/ha; for Plant response rating, Oat, Wild: 500 g ai/ha, visual rating after 13 to 15 days
Procedure, shortened: (§1)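 Formulated test chemicals went onto postemergence plants measuring 2 to 18 cm, at one to four leaves. For the paddy assay, species had reached two leaves. Scoring took place 13–15 days later by eye, relative to untreated plants, using 0 for no effect up to 100 for full control.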

blackgrass = test: Test B postemergence herbicide test; type: in vivo, Alopecurus myosuroides; settings: Postemergence, scale 0 (no effect) to 100 (complete control); for Blackgrass plant response rating: 125 g ai/ha; for Plant response rating, Blackgrass: 500 g ai/ha, visual rating after 13 to 15 days
Procedure, shortened: (§2)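 After treating 2-leaf paddy plants or 2–18 cm postemergence plants (1 to 4 leaves) with formulated chemical, researchers kept them in a greenhouse for 13–15 days. Effects were judged visually versus controls: 0 indicates none, 100 total control.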

large crabgrass = test: Test B pre-/postemergence herbicide test; type: in vivo, Digitaria sanguinalis; settings: for Plant response rating, Crabgrass, Large: visual rating after 13 to 15 days
Procedure, shortened: (§3)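 Evaluation is visual, comparing treated with control plants on a scale where 0 means no effect and 100 means full control. Treatments were preemergence, or postemergence on seedlings 2–18 cm tall, and held 13–15 days in the greenhouse.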

cocklebur = test: Test B pre-/postemergence herbicide test; type: in vivo, Xanthium strumarium; settings: for Plant response rating, Cocklebur: visual rating after 13 to 15 days
Procedure, shortened: (§4)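 Flooded paddy rice and barnyardgrass were treated at the 2-leaf stage; upland plantings received compound either on sown seed or on 1- to 4-leaf seedlings. All were kept 13–15 days in a greenhouse and scored visually, 0–100, relative to untreated plants.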

barnyardgrass = test: Test B pre-/postemergence herbicide test; type: in vivo, Echinochloa crus-galli; settings: for Plant response rating, Barnyardgrass: visual rating after 13 to 15 days
Procedure, shortened: as §4

velvetleaf = test: Test B pre-/postemergence herbicide test; type: in vivo, Abutilon theophrasti; settings: for Velvetleaf plant response rating: Preemergence, scale 0 to 100
Procedure, shortened: as §3

[1] = test system: small flower umbrella sedge; test: Test B flooded paddy test; type: in vivo, Cyperus difformis; settings: 1000 g ai/ha, visual rating, scale 0 to 100 (0 no effect, 100 complete control), 13 to 15 days
Procedure, shortened: as §2

corn = test: Test B pre-/postemergence herbicide test; type: in vivo, Zea mays
Procedure, shortened: as §3

Surinam grass = test: Test B pre-/postemergence herbicide test; type: in vivo, Urochloa decumbens; settings: for Surinam Grass plant response rating: Preemergence, scale 0 to 100
Procedure, shortened: as §3

giant foxtail = test: Test B pre-/postemergence herbicide test; type: in vivo, Setaria faberi
Procedure, shortened: as §3

lambsquarters = test: Test B pre-/postemergence herbicide test; type: in vivo, Chenopodium album
Procedure, shortened: as §3

wheat = test: Test B postemergence herbicide test; type: in vivo, Triticum aestivum; settings: Postemergence, 500 g ai/ha; visual rating after 13 to 15 days, scale 0 (no effect) to 100 (complete control)
Procedure, shortened: as §1

pigweed = test: Test B pre-/postemergence herbicide test; type: in vivo, Amaranthus retroflexus; settings: for Pigweed plant response rating: Preemergence, scale 0 to 100
Procedure, shortened: as §3

morningglory = test: Test B pre-/postemergence herbicide test; type: in vivo, Ipomoea coccinea
Procedure, shortened: as §4

[2] = Postemergence, 125 g ai/ha, scale 0 (no effect) to 100 (complete control)
[3] = Postemergence, 500 g ai/ha, scale 0 (no effect) to 100 (complete control)
[4] = Preemergence, 500 g ai/ha, scale 0 to 100
[5] = Postemergence, 500 g ai/ha, visual rating after 13 to 15 days, scale 0 (no effect) to 100 (complete control)
[6] = preemergence, 125 g ai/ha, 0 to 100 scale, 0 is no effect, 100 is complete control

SMILES	Oat, Wild plant response rating (wild oat)	Plant response rating, Oat, Wild (wild oat)	Blackgrass plant response rating (blackgrass)	Plant response rating, Blackgrass (blackgrass)	Crabgrass, Large plant response rating (large crabgrass; [2])	Plant response rating, Crabgrass, Large (large crabgrass; [3])	Crabgrass, Large plant response rating (large crabgrass; [4])	Cocklebur plant response rating (cocklebur; [2])	Plant response rating, Cocklebur (cocklebur; [3])	Cocklebur plant response rating (cocklebur; [4])	Barnyardgrass plant response rating (barnyardgrass; [2])	Plant response rating, Barnyardgrass (barnyardgrass; [3])	Barnyardgrass plant response rating (barnyardgrass; [4])	Plant response rating, Velvetleaf (velvetleaf; [5])	Velvetleaf plant response rating (velvetleaf; 500 g ai/ha)	Plant response rating, Velvetleaf (velvetleaf; [6])	Sedge, Umbrella plant response rating [1]	Corn plant response rating (corn; [4])	Plant response rating, Surinam Grass (Surinam grass; [5])	Surinam Grass plant response rating (Surinam grass; 500 g ai/ha)	also measured
CCNC(=O)c1cccc(NC(=O)c2cc(C(C)(C)C)nn2CCF)c1 [Compound 35]	0	10	20	30	20	20	90	50	100	30	10	20	100	50	60	50	90	40	40	80	Plant response rating, Surinam Grass (Surinam grass; [6]): 40; Foxtail, Giant plant response rating (giant foxtail; [2]): 20; Plant response rating, Foxtail, Giant (giant foxtail; [5]): 20; Foxtail, Giant plant response rating (giant foxtail; [4]): 100; Plant response rating, Foxtail, Giant (giant foxtail; [6]): 80; Lambsquarters plant response rating (lambsquarters; [2]): 80; Plant response rating, Lambsquarters (lambsquarters; [5]): 90; Lambsquarters plant response rating (lambsquarters; [4]): 100; Plant response rating, Lambsquarters (lambsquarters; [6]): 90; Plant response rating, Wheat (wheat): 20; Plant response rating, Pigweed (pigweed; [5]): 100; Pigweed plant response rating (pigweed; 500 g ai/ha): 100; Plant response rating, Pigweed (pigweed; [6]): 100; Morningglory plant response rating (morningglory; [4]): 10; Plant response rating, Morningglory (morningglory; [6]): 10
CCn1nc(C(C)(C)C)cc1C(=O)Nc1cccc(C(=O)NC2CC2)c1 [Compound 44]	20	20	10	20	20	90	100	40	80	20	20	60	100	80	100	20	70	0	20	40	Corn plant response rating (corn; [2]): 20; Plant response rating, Corn (corn; [5]): 30; Plant response rating, Surinam Grass (Surinam grass; [6]): 0; Foxtail, Giant plant response rating (giant foxtail; [2]): 20; Plant response rating, Foxtail, Giant (giant foxtail; [5]): 30; Foxtail, Giant plant response rating (giant foxtail; [4]): 70; Plant response rating, Foxtail, Giant (giant foxtail; [6]): 0; Lambsquarters plant response rating (lambsquarters; [2]): 80; Plant response rating, Lambsquarters (lambsquarters; [5]): 90; Lambsquarters plant response rating (lambsquarters; [4]): 100; Plant response rating, Lambsquarters (lambsquarters; [6]): 80; Plant response rating, Wheat (wheat): 20; Plant response rating, Pigweed (pigweed; [5]): 100; Pigweed plant response rating (pigweed; 500 g ai/ha): 100; Plant response rating, Pigweed (pigweed; [6]): 100; Morningglory plant response rating (morningglory; [2]): 30; Plant response rating, Morningglory (morningglory; [5]): 90; Morningglory plant response rating (morningglory; [4]): 10; Plant response rating, Morningglory (morningglory; [6]): 0
